Laboratory results: US4826962A, “Tetrachlororaffinose and its use in the preparation of sucralose” (Tate & Lyle Public Limited Company, priority 1985, dated 1989)
Values after ≈ are worked out from the molar mass of the structure shown.

Key:
[1] = Solubility in solvents pre-saturated with aqueous buffer at 55° C.; format: physicochemical
[2] = tested on: Melibiase in the form of pelletised cells of Mortierella vinacea var raffinoseutilizer (ATCC 20034); experiment: Hydrolysis of TCR to sucralose by melibiase pellets in aqueous buffer; format: biochemical; settings: for TCR hydrolysed: 55° C., pH 5.0, 1% (w/v) TCR
Procedure: The tetrachlorogalactoraffinose of Example 1 (20 mg) was placed in a screw-top bottle together with 0.1M-citrate-phosphate buffer (pH 5.0) (2 ml) to give a 1% (w/v) solution. This level of water was maintained during the following incubation period by addition of more water when required.
Melibiase in the form of pelletised cells of Mortierella vinacea var raffinoseutilizer (ATCC 20034) (supplied by Hokkaido Sugar Co, Japan) was added (10 mg) and the mixture was incubated at 55° C. for up to 100 hours. The degree of hydrolysis was followed periodically by t.l.c. analysis of withdrawn 250 μl aliquots eluted with ethyl acetate:ethanol:water (45:5:1) or by hplc on a Waters Dextropak Cl8 reverse phase column eluted by acetonitrile 20% (v/v) and products measured using a refractive index detector. The result is plotted in FIG. 1. It was found, for example, that about 53% had been hydrolysed after 48 hours and about 70% after 90 hours. The products were separated by chromatography and, in addition to sucralose, the presence of 6-chlorogalactose and TCR was detected. TCR can be used at up to 15% (w/v) in this system.

[3] = tested on: α-Galactosidase in the form of pelletized cells of M. vinacea var raffinoseutilizer (ATCC 20034); experiment: Hydrolysis of TCR to sucralose in organic media; format: biochemical; settings: for Conversion of TCR into sucralose: 24 hours, 20 mM TCR, 55° C.
Procedure: The TCR of Example 1 (23 mg) was placed in a 5 ml screw-top vial and 2 ml of an organic solvent which had been pre-saturated with aqueous buffer (sodium acetate, 50 mM, pH 5.0) was added to give a 20 mM (1.15% w/v) solution. α-Galactosidase in the form of pelletized cells of M. vinacea var raffinoseutilizer (ATCC 20034) was added (100 mg) to each vial and the reactions were initiated by adding 1% v/v aqueous buffer, vortexing for 30 seconds, and placing the vial in a water-bath shaker at 55° C. and 100 rpm. Periodically, aliquots were removed and 25 μl were injected into an Hplc system fitted with a reverse phase (Waters Dextropak C18) column, using 20% aqueous acetonitrile as eluant, to measure the sucralose produced and the residual TCR. In the figure the progress of the hydrolysis of TCR into sucralose with time is plotted for aqueous buffer (curve 1) and for three solvents, methyl isobutyl ketone (2), ethyl acetate (3) and n-butanol (4). The hydrolysis reaction in methyl isobutyl ketone and in aqueous buffer were similar. Lower rates and conversions were obtained in ethyl acetate and n-butanol, respectively. In all cases, greater than 50% conversion in 24 hours was observed, with 70% conversions in aqueous buffer and methyl isobutyl ketone.
The reason that the time-course for TCR hydrolysis in ethyl acetate was lower than that in aqueous buffer at 20 mM TCR was due to the higher Km of TCR in ethyl acetate and not due to a lower catalytic activity. When 50 mM TCR was used, the rates and conversions of TCR hydrolysis in ethyl acetate were similar to those in aqueous buffer.

[4] = tested on: α-galactosidase of Absidia griseola; experiment: TCR hydrolysis by cell debris of α-galactosidase organisms; format: biochemical
Procedure: (§1) Organisms reported to have an α-galactosidase activity were obtained from the ATCC. They were grown in 500 ml shake flasks containing 100 ml of a mineral salts medium (Jayasuria, 1955 Journal of General Microbiology 12 419-428) containing 1 g/l yeast extract plus 5 g/l raffinose at 30° C. Cells were collected by centrifugation (5000 rev/min for 10 min) in the late exponential phase of growth, resuspended in 5 times their volume of citrate-phosphate buffer pH 5.0, and maintained at 0° C. in an ice bath and were disrupted by 3×20 second bursts in a MSE sonicator (Dawe Soniprobe Type 1130A) at maximum output. The resulting suspension was centrifuged (17,000 rev/min) for 30 minutes and both debris and supernatant assayed for α-galactosidase activity in units per g. dry weight of cell debris using p-nitrophenyl α-D-galactopyranoside (Sigma). Virtually no enzyme activity was detected in the supernatant. Cultures which were positive were then tested for TCR hydrolysis as in Example 4 and the results given in mg sucralose per g dry weight of cell debris per hour (for 70% conversion).

[5] = tested on: α-galactosidase of Aspergillus awamori; experiment: as above; format: biochemical; settings: Aspergillus awamori ATCC 44733, for 70% conversion
Procedure: as §1

[6] = tested on: α-galactosidase of Aspergillus niger; experiment: as above; format: biochemical; settings: Aspergillus niger ATCC 36220, for 70% conversion
Procedure: as §1

[7] = tested on: α-galactosidase of Circinella muscae; experiment: as above; format: biochemical
Procedure: as §1

[8] = tested on: α-galactosidase of Mortierella vinacea; experiment: as above; format: biochemical
Procedure: as §1

[9] = tested on: α-galactosidase of Saccharomyces uvarum; experiment: as above; format: biochemical; settings: Saccharomyces uvarum ATCC 42367, for 70% conversion
Procedure: as §1

[10] = tested on: α-galactosidase of Talaromyces thermophilus; experiment: as above; format: biochemical; settings: Talaromyces thermophilus ATCC 16461, for 70% conversion
Procedure: as §1

[11] = Stability of sucralose under the enzyme treatment conditions; format: physicochemical; settings: about 55° C., pH 5.0
Procedure: In both aqueous and organic systems, the treatment should naturally be at the optimum temperature and pH for the enzyme which, for the M. vinacea melibiase is about 55° C. and pH 4.5-5.5. In water-saturated organic solvents this refers to the pH of the aqueous buffer. At this temperature and at a pH of 5.0, we find that the sucralose produced is not degraded.

[12] = sweeter than sucrose; cited from earlier work
[13] = cited from earlier work
[14] = organic solvent or mixture, ethyl acetate pre-saturated with aqueous buffer, 55° C.
[15] = organic solvent or mixture, methyl isobutyl ketone pre-saturated with aqueous buffer, 55° C.
[16] = organic solvent or mixture, n-butanol pre-saturated with aqueous buffer, 55° C.
[17] = organic solvent or mixture, n-octanol pre-saturated with aqueous buffer, 55° C.
[18] = organic solvent or mixture, nitrobenzene pre-saturated with aqueous buffer, 55° C.

With `OC1C(CCl)OC(OCC2OC(OC3(CCl)OC(CCl)C(O)C3O)C(O)C(O)C2Cl)C(O)C1O` (centres unmarked) [TCR, 4,1',6',6"-tetrachloro-4,1',6',6"-tetradeoxygalactoraffinose] the solubility ([1]; aqueous buffer) was 150 mg/mL (≈ 259 mM), the solubility [1, 14] was > 500 mg/mL and the solubility ([1]; organic solvent or mixture, hydrophilic water-immiscible solvents (ethyl acetate, n-butanol, methyl isobutyl ketone)) was > 500 mg/mL. For the same molecule, the solubility ([1]; organic solvent or mixture, hydrophobic water-immiscible solvents (e.g. n-octanol, nitrobenzene, butyronitrile)) was < 50 mg/mL, the solubility [1, 15] was > 500 mg/mL and the solubility [1, 16] was > 500 mg/mL. The solubility [1, 17] was 50 mg/mL (≈ 86.5 mM), the solubility [1, 18] was < 20 mg/mL and the solubility ([1]; water (aqueous buffer), 55° C.) was 150 mg/mL (≈ 259 mM). The “Rate of reaction on TCR relative to raffinose” value ([2]; M. vinacea melibiase (Hokkaido Sugar Co.)) was “only a few percent of the rate on raffinose itself”, the TCR hydrolysed ([2]; after 48 hours) was “about 53%” and the TCR hydrolysed ([2]; after 90 hours) was “about 70%”. For the same molecule, the Kcat ([2]; aqueous solution) was 52.5 mg per g enzyme per hour, the Km ([2]; aqueous solution, read-out: Michaelis constant (Km)) was 5.8 mM and the “Conversion of TCR into sucralose” value ([3]; aqueous buffer) was 70%. The “Conversion of TCR into sucralose” value ([3]; ethyl acetate) was “greater than 50%”, the “Conversion of TCR into sucralose” value ([3]; methyl isobutyl ketone) was 70% and the “Conversion of TCR into sucralose” value ([3]; n-butanol) was “greater than 50%”. The “TCR hydrolysis in highly water-miscible solvents” value ([3]; dioxane, acetone, methanol, THF, even with 30% v/v aqueous buffer) was “unable to support hydrolysis”, the Kcat ([3]; ethyl acetate) was 56.3 mg sucralose/g pellets/h and the Km ([3]; ethyl acetate) was 16.4 mM. The “TCR Hydrolysis” value ([4]; Absidia griseola ATCC 20430, for 70% conversion) was 0 mg sucralose per g dry weight, the “TCR Hydrolysis” value ([4]; Absidia griseola ATCC 20431, for 70% conversion) was < 0.2 mg sucralose per g dry weight and the “TCR Hydrolysis” value ([4]; Absidia griseola ATCC 22618, for 70% conversion) was 0 mg sucralose per g dry weight. The “TCR Hydrolysis” value [5] was 0 mg sucralose per g dry weight, the “TCR Hydrolysis” value [6] was 0.49 mg sucralose per g dry weight and the “TCR Hydrolysis” value ([7]; Circinella muscae ATCC 16008, for 70% conversion) was 1.12 mg sucralose per g dry weight. The “TCR Hydrolysis” value ([7]; Circinella muscae ATCC 20394, for 70% conversion) was < 0.2 mg sucralose per g dry weight, the “TCR Hydrolysis” value ([7]; Circinella muscae ATCC 22337, for 70% conversion) was 0 mg sucralose per g dry weight and the “TCR Hydrolysis” value ([8]; Mortierella vinacea ATCC 20034, for 70% conversion) was 1.09 mg sucralose per g dry weight. The “TCR Hydrolysis” value ([8]; Mortierella vinacea ATCC 34195, for 70% conversion) was 1.33 mg sucralose per g dry weight, the “TCR Hydrolysis” value ([8]; Mortierella vinacea ATCC 42425, for 70% conversion) was 1.06 mg sucralose per g dry weight and the “TCR Hydrolysis” value ([8]; Mortierella vinacea Hokkaido (pellets), for 70% conversion) was 4.3 mg sucralose per g dry weight. The “TCR Hydrolysis” value [9] was 0 mg sucralose per g dry weight and the “TCR Hydrolysis” value [10] was 0 mg sucralose per g dry weight.
In the case of `OC[C@H]1O[C@H](O[C@]2(CCl)O[C@H](CCl)[C@@H](O)[C@@H]2O)[C@H](O)[C@@H](O)[C@H]1Cl` [sucralose, 4,1',6'-trichloro-4,1',6'-trideoxygalactosucrose], the solubility [1, 14] is reported as 57 mg/mL (≈ 143 mM), the solubility [1, 15] is reported as 60 mg/mL (≈ 151 mM) and the solubility [1, 16] is reported as > 500 mg/mL. The solubility [1, 17] was < 10 mg/mL, the solubility [1, 18] was < 10 mg/mL and the solubility ([1]; water (aqueous buffer), 55° C.) was 300 mg/mL (≈ 754 mM). The “Degradation of sucralose produced” value [11] was “not degraded”, the “Sweetness relative to sucrose” value [12] was “about 600 X” and the Degradation in vivo [13] was “not degraded in vivo”.
